ChEMBL document CHEMBL1201862, “PubChem BioAssay data set” (2004)
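Each compound was tested at five concentrations against cells in 96-well plates for 48 hours. At the GI50, growth is halved.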 Calls of active or inactive are those of the source. No stated cut-off is given here; in the data, active = GI50 up to about 1.1 µM and inactive = higher.

Legend:
Assay in all cases: NCI-60 cell line screen, 48 h
[1] = system: M19-MEL
[2] = system: DLD-1
[3] = system: DMS-273
[4] = system: DMS-114
[5] = system: SNB-78
[6] = system: RXF 631
[7] = system: HOP-18
[8] = system: LXFL 529
[9] = system: BT-549

Measured: GI50

O=[N+]([O-])C1Cc2ccccc2OC1c1ccccc1 (configuration not stated)
inactive: [1] > 100 µM | [2] 35.3 µM | [3] 60.4 µM | [4] > 10 µM | [5] 21.4 µM | [6] 62.2 µM | [7] > 100 µM | [8] > 100 µM

O=C(CC(=O)Nc1ccccc1O)Nc1ccccc1O
inactive: [1] 15 µM | [2] 12.5 µM | [3] 25.9 µM | [4] 1.75 µM | [5] > 100 µM | [6] 9.79 µM | [7] 19.4 µM | [8] 8.91 µM

CCOC(=O)c1ccc(/C(C)=N/NC(N)=S)cc1
inactive: [1] > 100 µM | [2] > 100 µM | [3] > 100 µM | [4] > 100 µM | [5] > 100 µM | [6] > 100 µM | [7] > 100 µM | [8] > 100 µM

CCOC(=O)[C@@]12C(C)=CC(=O)O[C@]1(C)C1C(=O)NC(=O)C12 (some centres not stated)
inactive: [2] > 100 µM | [3] > 100 µM | [4] > 100 µM | [5] > 100 µM | [6] > 100 µM | [7] 31.4 µM | [8] > 100 µM

O=[N+]([O-])c1ccccc1C1N2CCCCC2[C@@H]2c3[nH]c4ccccc4c3CCN12 (some centres not stated)
inactive: [1] 6.25 µM | [2] 14.2 µM | [3] 10.9 µM | [4] 4.34 µM | [5] 15.3 µM | [6] 13.2 µM | [7] 36.5 µM | [8] 10.8 µM

CCCCCCCCCC1CC(=O)OC2=C1C(=O)CCC2 (configuration not stated)
inactive: [1] > 100 µM | [2] > 100 µM | [3] > 100 µM | [4] > 100 µM | [5] > 100 µM | [6] > 100 µM | [7] > 100 µM | [8] > 100 µM

Clc1ccc(Cc2nc3ccccc3s2)c(Cl)c1
inactive: [1] 15.7 µM | [2] 15.3 µM | [3] 18 µM | [4] 17 µM | [6] 16.4 µM | [7] 16 µM | [8] 16.8 µM

O=[N+]([O-])c1ccc(C2=Nc3ccccc3[S+]([O-])C(c3ccccc3)C2)cc1 (configuration not stated)
inactive: [1] 14.6 µM | [2] 18.6 µM | [3] 22.6 µM | [4] 19.1 µM | [6] 17.1 µM | [7] 24.9 µM | [8] 13.5 µM

COc1cc(-c2oc3c(OC)c(OC)cc(O)c3c(=O)c2OC)ccc1O [TERNATIN]
inactive: [9] 5.01 µM | [2] 3.7 µM | [4] > 100 µM | [5] 6.49 µM | [6] > 100 µM | [8] 3.98 µM
